Calls of active or inactive are those of the source. No cut-off for these calls is given here.
Legend:
HepG2 = experiment: Cytotoxicity against human HepG2 cells after 3 days by MTT assay; assay type: functional, cell-based; conditions: HepG2, 72 h
SK-OV-3 = experiment: Cytotoxicity against human SKOV3 cells after 3 days by MTT assay; assay type: functional, cell-based; conditions: SK-OV-3, 72 h
NCI-H460 = experiment: Cytotoxicity against human NCI-H460 cells after 3 days by MTT assay; assay type: functional, cell-based; conditions: NCI-H460, 72 h
A549 [1] = experiment: Cytotoxicity against human A549 cells after 3 days by MTT assay; assay type: functional, cell-based; conditions: A549, 72 h
A549 [2] = experiment: Induction of apoptosis in human A549 cells assessed as necrotic/late apoptotic cells at 25 uM after 12 hrs by Annexin V-propidium iodide staining-based FACS flow cytometric analysis (reference value: 0.4%); assay type: functional
A549 [3] = experiment: Induction of apoptosis in human A549 cells assessed as early apoptotic cells at 25 uM after 12 hrs by Annexin V-propidium iodide staining-based FACS flow cytometric analysis (reference value: 0.2%); assay type: functional
A549 [4] = experiment: Induction of apoptosis in human A549 cells assessed as necrotic/late apoptotic cells at 20 uM after 12 hrs by Annexin V-propidium iodide staining-based FACS flow cytometric analysis (reference value: 0.4%); assay type: functional
A549 [5] = experiment: Induction of apoptosis in human A549 cells assessed as early apoptotic cells at 20 uM after 12 hrs by Annexin V-propidium iodide staining-based FACS flow cytometric analysis (reference value: 0.2%); assay type: functional
A549 [6] = experiment: Induction of apoptosis in human A549 cells after 12 hrs by Annexin V-propidium iodide staining-based FACS flow cytometric analysis; assay type: functional, cell-based
A549 [7] = experiment: Induction of apoptosis in human A549 cells assessed as DNA ladder formation at 10 to 30 uM by agarose gel electrophoresis; assay type: functional, cell-based
A549 [8] = experiment: Induction of apoptosis in human A549 cells assessed as DNA fragmentation at 15 uM after 12 to 24 hrs by TUNEL assay; assay type: functional, cell-based
A549 [9] = experiment: Induction of apoptosis in human A549 cells assessed as decrease in mitochondrial membrane potential at 15 uM after 12 to 24 hrs by JC-1 staining-based fluorescence microscopic analysis; assay type: functional, cell-based
A549 [10] = experiment: Induction of apoptosis in human A549 cells at 15 uM after 12 to 24 hrs by Hoechst 33258 staining-based fluorescence microscopic analysis; assay type: functional, cell-based
A549 [11] = experiment: Cytotoxicity against human A549 cells assessed as necrotic cells at 15 uM after 12 to 24 hrs by AO/EB staining-based fluorescence microscopic analysis; assay type: cell-based; conditions: a549, 15 µM
A549 [12] = experiment: Induction of apoptosis in human A549 cells assessed as cell budding at 15 uM after 12 to 24 hrs by AO/EB staining-based fluorescence microscopic analysis; assay type: functional
A549 [13] = experiment: Induction of apoptosis in human A549 cells assessed as membrane blebbing at 15 uM after 12 to 24 hrs by AO/EB staining-based fluorescence microscopic analysis; assay type: functional, cell-based
A549 [14] = experiment: Induction of apoptosis in human A549 cells assessed as pycnosis at 15 uM after 12 to 24 hrs by AO/EB staining-based fluorescence microscopic analysis; assay type: functional, cell-based

Row | SMILES | IC50 (HepG2) | IC50 (SK-OV-3) | IC50 (NCI-H460) | IC50 (A549 [1]) | further results
1 | CCOP(=O)(OCC)C(NC(=S)NC(=O)[C@]1(C)CCC[C@]2(C)c3ccc(C(C)C)cc3C(=O)C[C@@H]12)c1ccc(Cl)cc1 (some centres not stated) | 39.5 µM | 31.4 µM | 41.2 µM | 30.3 µM | 
2 | CCOP(=O)(OCC)C(NC(=S)NC(=O)[C@]1(C)CCC[C@]2(C)c3ccc(C(C)C)cc3/C(=N\O)C[C@@H]12)c1ccc(F)cc1 (some centres not stated) | 13.1 µM | 11.4 µM | 17.7 µM | 7 µM | Activity (A549 [2]): 17.7%; Activity (A549 [3]): 34%; Activity (A549 [4]): 5.3%; Activity (A549 [5]): 14.4%; Activity (A549 [6]): Dose-dependent effect; Activity (A549 [7]): Active; Activity (A549 [8]): Active; Activity (A549 [9]): Active; Activity (A549 [10]): Active; Activity (A549 [11]): Non-toxic; Activity (A549 [12]): Active; Activity (A549 [13]): Active; Activity (A549 [14]): Active
3 | CCOP(=O)(OCC)C(NC(=S)NC(=O)[C@]1(C)CCC[C@]2(C)c3ccc(C(C)C)cc3C(=O)C[C@@H]12)c1ccccc1F (some centres not stated) | 49.3 µM | 45.1 µM | 36.4 µM | > 50 µM | 
4 | CCOP(=O)(OCC)C(NC(=S)NC(=O)[C@]1(C)CCC[C@]2(C)c3ccc(C(C)C)cc3/C(=N\O)C[C@@H]12)c1ccc2ccccc2c1 (some centres not stated) | 20.9 µM | 40.6 µM | 26.8 µM | > 50 µM | 
5 | CCOP(=O)(OCC)C(NC(=S)NC(=O)[C@]1(C)CCC[C@]2(C)c3ccc(C(C)C)cc3C(=O)C[C@@H]12)c1cccc(OC)c1 (some centres not stated) | 15.8 µM | 8.41 µM | 11.5 µM | 14.1 µM | 
6 | CCOP(=O)(OCC)C(NC(=S)NC(=O)[C@]1(C)CCC[C@]2(C)c3ccc(C(C)C)cc3/C(=N\O)C[C@@H]12)c1ccc(Cl)cc1 (some centres not stated) | 21.4 µM | 16.6 µM | 23.8 µM | 9.66 µM | 
7 | CCOP(=O)(OCC)C(NC(=S)NC(=O)[C@]1(C)CCC[C@]2(C)c3ccc(C(C)C)cc3C(=O)C[C@@H]12)c1ccc(OC)cc1 (some centres not stated) | > 50 µM | 49.9 µM | 24.5 µM | 26.1 µM | 
8 | CCOP(=O)(OCC)C(NC(=S)NC(=O)[C@]1(C)CCC[C@]2(C)c3ccc(C(C)C)cc3C(=O)C[C@@H]12)c1cccc(Cl)c1 (some centres not stated) | > 50 µM | > 50 µM | > 50 µM | 44.1 µM | 
9 | CCOP(=O)(OCC)C(NC(=S)NC(=O)[C@]1(C)CCC[C@]2(C)c3ccc(C(C)C)cc3/C(=N\O)C[C@@H]12)c1cccc(Cl)c1 (some centres not stated) | 13.2 µM | 12.3 µM | 28.4 µM | 19 µM | 
10 | CCOP(=O)(OCC)C(NC(=S)NC(=O)[C@]1(C)CCC[C@]2(C)c3ccc(C(C)C)cc3/C(=N\O)C[C@@H]12)c1cccc(C)c1 (some centres not stated) | 12.5 µM | 28.6 µM | 37.9 µM | 12.9 µM | 
11 | CCOP(=O)(OCC)C(NC(=S)NC(=O)[C@]1(C)CCC[C@]2(C)c3ccc(C(C)C)cc3/C(=N\O)C[C@@H]12)c1cccc(F)c1 (some centres not stated) | 17.5 µM | 25.2 µM | 13.3 µM | 28.9 µM | 
12 | CCOP(=O)(OCC)C(NC(=S)NC(=O)[C@]1(C)CCC[C@]2(C)c3ccc(C(C)C)cc3/C(=N\O)C[C@@H]12)c1ccc(C)cc1 (some centres not stated) | 10.9 µM | 8.95 µM | 22.4 µM | 17.9 µM | 
13 | CCOP(=O)(OCC)C(NC(=S)NC(=O)[C@]1(C)CCC[C@]2(C)c3ccc(C(C)C)cc3C(=O)C[C@@H]12)c1cccc(C)c1 (some centres not stated) | > 50 µM | > 50 µM | 42.7 µM | 37.1 µM | 
14 | CCOP(=O)(OCC)C(NC(=S)NC(=O)[C@]1(C)CCC[C@]2(C)c3ccc(C(C)C)cc3/C(=N\O)C[C@@H]12)c1cccc2ccccc12 (some centres not stated) | 27.9 µM | 40.1 µM | 37.1 µM | 28 µM | 
15 | CCOP(=O)(OCC)C(NC(=S)NC(=O)[C@]1(C)CCC[C@]2(C)c3ccc(C(C)C)cc3C(=O)C[C@@H]12)c1ccccc1Cl (some centres not stated) | 39.9 µM | 27.9 µM | 36.1 µM | 22.5 µM | 
16 | CCOP(=O)(OCC)C(NC(=S)NC(=O)[C@]1(C)CCC[C@]2(C)c3ccc(C(C)C)cc3C(=O)C[C@@H]12)c1ccc(F)cc1 (some centres not stated) | 45.4 µM | 30.2 µM | 22.4 µM | 17.4 µM | 
